Experimental findings from patent US7495015B2, “Indazole derivatives and methods for using the same” (Roche Palo Alto LLC, priority 2004, dated 2009) are described below.

This experiment concerns the target T1, p38 MAP kinase (Homo sapiens, UniProt Q16539).
T1 construct: made in house; host or cells: E. coli (co-expressed with SEK-1 and MEKK to obtain the phosphorylated form)
The experiment in a line: p38 (MAP) kinase in vitro assay (transfer of γ-phosphate from γ-33P-ATP to Myelin Basic Protein). The experiment is classed as biochemical. The settings on record: phosphorylated recombinant p38 MAP kinase, MBP substrate, 30° C. The protocol:
This example illustrates a p38 (MAP) kinase in vitro assay useful for evaluating the compounds of the invention.
The p38 MAP kinase inhibitory activity of compounds of this invention in vitro was determined by measuring the transfer of the γ-phosphate from γ-^33P-ATP by p-38 kinase to Myelin Basic Protein (MBP), using a minor modification of the method described in Ahn, et al., J. Biol. Chem. 266:4220-4227 (1991).
The phosphorylated form of the recombinant p38 MAP kinase was co-expressed with SEK-1 and MEKK in E. Coli (see, Khokhlatchev, et al., J Biol. Chem. 272:11057-11062 (1997)) and then purified by affinity chromatography using a Nickel column.
The phosphorylated p38 MAP kinase was diluted in kinase buffer (20 mM 3-(N-morpholino)propanesulfonic acid, pH 7.2, 25 mM β-glycerol phosphate, 5 mM ethylene glycol-bis(beta-aminoethyl ether)-N,N,N′,N′-tetraacetic acid, 1 mM sodium ortho-vanadate, 1 mM dithiothreitol, 40 mM magnesium chloride). Test compound dissolved in DMSO or only DMSO (control) was added and the samples were incubated for 10 min at 30° C. The kinase reaction was initiated by the addition of a substrate cocktail containing MBP and γ-^33P-ATP. […] The phosphorylated MBP was then separated from the residual γ-^33P-ATP using a phosphocellulose membrane (Millipore, Bedfrod, Mass.) and quantitated using a scintillation counter (Packard, Meriden, Conn.).

SMILES strings stand for the structures.

T1 sequence (Q16539 whole entry): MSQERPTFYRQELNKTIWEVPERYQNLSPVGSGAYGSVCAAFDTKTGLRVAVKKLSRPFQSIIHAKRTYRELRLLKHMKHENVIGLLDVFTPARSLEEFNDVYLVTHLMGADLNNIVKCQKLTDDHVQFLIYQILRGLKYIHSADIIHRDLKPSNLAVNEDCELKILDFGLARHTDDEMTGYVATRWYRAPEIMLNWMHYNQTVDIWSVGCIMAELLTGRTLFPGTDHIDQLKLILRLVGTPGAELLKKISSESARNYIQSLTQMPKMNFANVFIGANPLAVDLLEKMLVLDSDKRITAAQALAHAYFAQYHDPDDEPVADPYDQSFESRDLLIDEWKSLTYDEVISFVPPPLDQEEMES

Consider `Oc1ccc(-c2n[nH]c3cc(Oc4ccccc4F)ccc23)cc1` [Compound 35, 4-[6-(2-Fluoro-phenoxy)-1H-indazol-3-yl]-phenol], for which the half-inhibitory concentration (IC50) (as a rule, the point on the concentration scale where inhibition reaches its midpoint) came out at 28 nM.
